Measured values from PubChem BioAssay (NCI).
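A five-concentration, 48-hour dose response in 96-well plates underlies each endpoint, interpolated linearly between surrounding concentrations. GI50 = concentration required for 50% inhibition of growth. TGI denotes the concentration required for complete inhibition of growth.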

Legend:
Assay in all cases: growth of human tumour cells (NCI), 48 h
SW-620 colon = system: SW-620 colon
UO-31 renal = system: UO-31 renal
LOX IMVI melanoma = system: LOX IMVI melanoma
NCI-H460 lung = system: NCI-H460 lung
OVCAR-3 ovarian = system: OVCAR-3 ovarian
RPMI-8226 leukemia = system: RPMI-8226 leukemia
SK-OV-3 ovarian = system: SK-OV-3 ovarian
SK-MEL-28 melanoma = system: SK-MEL-28 melanoma
PC-3 prostate = system: PC-3 prostate
SF-295 CNS = system: SF-295 CNS

Row | Compound | TGI (SW-620 colon) | TGI (UO-31 renal) | TGI (LOX IMVI melanoma) | TGI (NCI-H460 lung) | TGI (OVCAR-3 ovarian) | TGI (RPMI-8226 leukemia) | TGI (SK-OV-3 ovarian) | TGI (SK-MEL-28 melanoma) | TGI (PC-3 prostate) | TGI (SF-295 CNS) | GI50 (SW-620 colon) | GI50 (UO-31 renal) | GI50 (LOX IMVI melanoma) | GI50 (NCI-H460 lung) | GI50 (OVCAR-3 ovarian) | GI50 (RPMI-8226 leukemia) | GI50 (SK-OV-3 ovarian) | GI50 (SK-MEL-28 melanoma) | GI50 (PC-3 prostate) | GI50 (SF-295 CNS)
1 | CN1CSC(=S)N(c2c3ccccc3nc3ccc(Br)cc23)C1 | 23.8 µM | 22.4 µM | > 53.4 µM | 13.6 µM | 33.3 µM | 31.4 µM | 31.1 µM | 35.2 µM | 26.3 µM | 21.2 µM | – | – | – | – | – | – | – | – | – | –
2 | Cc1ccc(S(=O)(=O)N/N=C/C2(c3ccccc3)c3ccccc3-c3ccccc32)cc1 | 31 µM | 18.6 µM | 26.1 µM | 18.2 µM | 20.8 µM | 87.2 µM | 39.8 µM | 28.6 µM | 13.4 µM | 16.1 µM | – | – | – | – | – | – | – | – | – | –
3 | COc1cc(/C=C/C(=O)CC(=O)/C=C/c2ccc(OC(=O)CCCCC3CCSS3)c(OC)c2)ccc1OC(=O)CCCCC1CCSS1 (stereo not given) | > 100 µM | > 100 µM | > 100 µM | > 100 µM | > 100 µM | > 100 µM | > 100 µM | > 100 µM | > 100 µM | > 100 µM | – | – | – | – | – | – | – | – | – | –
4 | O=[N+]([O-])c1ccc(Oc2c(Cl)cc(S(=O)(=O)/N=C(\NO)Nc3ccc(Cl)cc3)cc2Cl)cc1 | 28.6 µM | 19.2 µM | 24.9 µM | 24.8 µM | 19.4 µM | 22.8 µM | 31.2 µM | 28.7 µM | 22.2 µM | 27.3 µM | – | – | – | – | – | – | – | – | – | –
5 | CC1=NN(c2cccc(Cl)c2)C2(C1=C/C=C/c1ccccc1)C(Cl)C(=O)N2c1nc2ccccc2s1 (stereo not given) | > 96.1 µM | > 61.2 µM | 57 µM | > 100 µM | > 80.9 µM | 23.5 µM | > 95.1 µM | > 100 µM | > 82.9 µM | > 100 µM | – | – | – | – | – | – | – | – | – | –
6 | CC1=C[C@@H]2Cc3nc4cc(Cl)ccc4c(N)c3[C@H](C1)C2 | 25.3 µM | 17.7 µM | 22.3 µM | 23.1 µM | 24.2 µM | 13.4 µM | 24.3 µM | 25.1 µM | 26.9 µM | 20 µM | – | – | – | – | – | – | – | – | – | –
7 | NS(=O)(=O)c1cc2c(cc1Cl)NC(CCC(=O)O)=NS2(=O)=O | > 100 µM | > 100 µM | > 100 µM | > 100 µM | > 100 µM | > 100 µM | > 100 µM | > 100 µM | > 100 µM | > 100 µM | – | – | – | – | – | – | – | – | – | –
8 | CCN(CC)CCN(C(=Nc1ccccc1)N1CCOCC1)c1ccccc1 | > 100 µM | > 100 µM | > 100 µM | > 100 µM | > 100 µM | > 100 µM | > 100 µM | > 100 µM | > 100 µM | > 100 µM | – | – | – | – | – | – | – | – | – | –
9 | Cc1cccc2c1CC1(C2)Cc2c(C)cccc2C1=O (stereo not given) | > 100 µM | > 100 µM | 38.7 µM | 83.2 µM | 51.1 µM | 43 µM | > 100 µM | 56.5 µM | > 100 µM | 68.8 µM | – | – | – | – | – | – | – | – | – | –
10 | CN(C)C1(N(C)C)Oc2c(c(=O)n(C)c(=O)n2C)C(c2ccc(Br)cc2)C1(F)F (stereo not given) | > 100 µM | > 100 µM | > 100 µM | > 100 µM | > 100 µM | > 100 µM | > 100 µM | > 100 µM | > 100 µM | > 100 µM | – | – | – | – | – | – | – | – | – | –
11 | CO[C@H]1/C=C(/C)CCC[C@H](C)[C@H](O)[C@@H](C)C(=O)C(C)(C)[C@@H](O)CC(=O)O[C@@H]1/C(C)=C/c1csc(C)n1 | > 100 µM | > 100 µM | > 100 µM | > 100 µM | 0.111 µM | > 100 µM | > 77.2 µM | > 100 µM | > 100 µM | 0.279 µM | < 0.0148 µM | 0.0334 µM | 0.0162 µM | < 0.01 µM | < 0.0161 µM | 0.0705 µM | 0.0272 µM | 0.0445 µM | 0.0361 µM | < 0.0168 µM
12 | O=C(Nc1nccs1)c1c(O)nc2sccn2c1=O | > 10 µM | > 10 µM | > 10 µM | > 10 µM | > 10 µM | > 10 µM | > 10 µM | > 10 µM | > 10 µM | > 10 µM | – | – | – | – | – | – | – | – | – | –
13 | CC1OC(OC2C(OC(=O)[C@]34CCC(C)(C)C[C@H]3C3=CC[C@@H]5[C@@]6(C)CC[C@H](OC7OC(C(=O)O)C(O)C(O)C7O)C(C)(C)[C@@H]6CC[C@@]5(C)[C@]3(C)C[C@H]4O)OCC(O)C2O)C(O)C(OC2OCC(O)(CO)C2O)C1OC1OCC(O)C(O)C1O (stereo not given in full) | 23.2 µM | 8.42 µM | 26.6 µM | 36.5 µM | 27.4 µM | 26 µM | 29.3 µM | 15.2 µM | 21.3 µM | 26.9 µM | – | – | – | – | – | – | – | – | – | –
14 | CCCC(=O)OC1CC(n2cc(F)c(=O)[nH]c2=O)OC1COP(=O)(OCC(Cl)(Cl)Cl)OCC(Cl)(Cl)Cl (stereo not given) | > 100 µM | > 100 µM | > 69.6 µM | 28.8 µM | 38.8 µM | 86.4 µM | > 31.6 µM | > 62.4 µM | > 100 µM | 16.8 µM | – | – | – | – | – | – | – | – | – | –
15 | CS(=O)c1ncc2c(n1)-c1ccccc1OC2 (stereo not given) | > 100 µM | > 100 µM | > 100 µM | > 100 µM | > 100 µM | > 100 µM | > 100 µM | > 100 µM | > 100 µM | > 100 µM | – | – | – | – | – | – | – | – | – | –
16 | c1c[nH]c(-c2ccc(-c3ccc[nH]3)c3nsnc23)c1 | > 100 µM | > 74.7 µM | > 100 µM | > 100 µM | 95.4 µM | > 52.6 µM | > 100 µM | > 100 µM | > 100 µM | > 100 µM | – | – | – | – | – | – | – | – | – | –
